In patent publication US20030199671A1, “Binding molecules for Fc-region polypeptides” (priority 2001, published 2003):
“And” between values parts separate entries of the source, which are not always exact repeats. Equal values may be shown once. Read-outs that look alike come from different tables or passages of the source. Blank lines part the entries; values can stand above or below the molecule they belong to. Positions of bridges follow the written chain, without caps; N, C: chain ends. Residues, ends and D or L forms follow the SMILES beside them. *: point of attachment. 5FAM = O=C1OC2(c3ccc(O)cc3Oc3cc(O)ccc32)c2ccc(C(=O)*)cc21

Legend:
[1] = biological target: Fc (mixture of human plasma IgG isoforms); assay: Fluorescence anisotropy binding, fluorescein-labeled peptide; conditions: 2 nM labeled peptide; 50 mM Tris-HCl, 200 mM NaCl, pH 8.0, 0.01% Tween 20
Description: (§1) Peptides were synthesized by BACHEM Bioscience, Inc., (King of Prussia, Pa.), fluorescein labeled and purified by HPLC. Binding studies were performed using either a mixture of human plasma IgG isoforms (the Fc target) or the individual human plasma IgG isoforms: IgG1, IgG2, IgG3, or IgG4. All Fc target proteins were obtained from Calbiochem.
(§2) All measurements were performed in 384 well microplates with 20 nM fluorescein-labeled peptide and various concentrations of the IgG isoform in a volume of between 10 and 20 μl using a Tecan Polarion fluorescence polarization plate reader. All binding buffers included 0.01% (v/v) Tween 20 to prevent peptide adsorption to the microplate. The binding mixture was equilibrated for 10 minutes in the microplate at 30° C. prior to performing the measurement.
(§3) Peptides were synthesized, fluorescein-labeled and HPLC purified as described above. Binding studies were performed using either a mixture of human plasma IgG isoforms (the Fc protein) or the individual human plasma IgG isoforms: IgG1, IgG2, IgG3, or IgG4.
(§4) Measurements were performed in 384-well microplates with 2 nM fluorescein-labeled peptide and a varied concentration of the IgG isoform target in a volume of 10 μl using a Tecan Polarion fluorescence polarization plate reader. The Fc binding buffer was 50 mM Tris-HCl, 200 mM NaCl, pH 8.0, 0.01% Tween 20. The IgG binding buffer was PBS with 0.01% Tween 20. The binding mixtures were equilibrated for 10 minutes in the microplate at 30° C. prior to performing the measurements.

human plasma IgG3 [2] = biological target: T1, human plasma IgG3 (Homo sapiens, UniProt P01860); assay: as above; conditions: 2 nM labeled peptide; PBS with 0.01% Tween 20
T1 construct: the individual human plasma IgG isoforms: IgG1, IgG2, IgG3, or IgG4; purchased Calbiochem; host or cells: human plasma
Description: as §1, §2, §3, §4

IgG4 = IgG4 (Homo sapiens, UniProt P01861); type: binding; design: all human subtypes derived from myeloma patients; purchased Calbiochem 400126; host or cells: myeloma patients; conditions: Table 9; immobilized peptide, 5.0 mg/ml resin load
Summary of the method: (§5)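 Read-out is A280 of unbound IgG (1.4 mg/ml extinction coefficient), with percent bound derived against non-filtered or negative controls. Targets were incubated with immobilized peptides in PBST or TBST for 1-1.5 h at room temperature. Hydrolyzed Sepharose and immobilized Protein A serve as negative and positive controls.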

human IgG2 = biological target: T2, human IgG2 (Homo sapiens, UniProt P01859); type: binding; conditions: Table 9; immobilized peptide, 5.0 mg/ml resin load
T2 construct: all human subtypes derived from myeloma patients; purchased Calbiochem 400122; host or cells: myeloma patients
Summary of the method: as §5

human IgG = type: binding; conditions: Table 11; unfractionated IgG
Summary of the method: (§6)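 Unfractionated IgG in PBST (10 mM phosphate, 150 mM NaCl, 0.01% Tween 20, pH 7.2) or TBST (50 mM Tris, pH 7.5) was batch-incubated with immobilized peptide resin for 1-1.5 h at room temperature. Unbound IgG was quantitated by A280, and percent bound was taken by subtraction from control values.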

human IgG1 = biological target: T3, human IgG1 (Homo sapiens, UniProt P01857); type: binding; conditions: Table 9; immobilized peptide, 5.0 mg/ml resin load
T3 construct: all human subtypes derived from myeloma patients; purchased Calbiochem 400120; host or cells: myeloma patients
Summary of the method: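 Percent bound = control mass minus unbound mass, with unbound IgG read at A280 after 1–1.5 h room-temperature incubation with the peptide resin in PBST pH 7.2 or TBST pH 7.5. Bound IgG was eluted 30–60 min with 0.1 M citrate pH 4.0 and/or bicarbonate pH 8.5. Recovery is given as percent of total load.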

bovine IgG = type: binding; conditions: Table 11; unfractionated IgG
Summary of the method: as §6

goat IgG = type: binding; conditions: Table 11; unfractionated IgG
Summary of the method: as §6

mouse IgG = type: binding; conditions: Table 11; unfractionated IgG
Summary of the method: as §6

human plasma IgG1 = biological target: T4, human plasma IgG1 (Homo sapiens, UniProt P01857); assay: Fluorescence anisotropy binding, Oregon Green labeled peptide
T4 construct: the individual human plasma IgG isoforms: IgG1, IgG2, IgG3, or IgG4; purchased Calbiochem; host or cells: human plasma
Description: (§7) Peptides were synthesized by BACHEM and then Oregon Green labeled and HPLC purified. Binding studies were performed using human plasma IgG isoforms: IgG1, IgG2, IgG3, and IgG4, obtained from Calbiochem.
(§8) Binding studies were carried out at either pH 4.0, 7.5, or 9.5, with or without salt in the following buffers:
(§9) 2) 10 mM Sodium Citrate, 500 mM Sodium Chloride, 0.01% Tween 20, pH 4.0;
(§10) 4) […], 500 mM Sodium Chloride, 0.01% Tween 20, pH 7.5;
(§11) 5) 10 mM Sodium Bicarbonate, 0.01% Tween 20, pH 9.5;
(§12) 6) 10 mM Sodium Bicarbonate, 500 mM Sodium Chloride, 0.01% Tween 20, pH 9.5; or […]

human plasma IgG2 = biological target: T5, human plasma IgG2 (Homo sapiens, UniProt P01859); assay: as above
T5 construct: the individual human plasma IgG isoforms: IgG1, IgG2, IgG3, or IgG4; purchased Calbiochem; host or cells: human plasma
Description: as §7, §8, §9, §10, §11, §12

human plasma IgG4 = biological target: T6, human plasma IgG4 (Homo sapiens, UniProt P01861); assay: as above
T6 construct: the individual human plasma IgG isoforms: IgG1, IgG2, IgG3, or IgG4; purchased Calbiochem; host or cells: human plasma
Description: as §7, §8, §9, §10, §11, §12

human plasma IgG3 [3] = biological target: T1, human plasma IgG3; assay: as above
Description: as §7, §8, §9, §10, §11, §12

IgG3 = IgG3 (Homo sapiens, UniProt P01860); type: binding; design: all human subtypes derived from myeloma patients; purchased Calbiochem 400124; host or cells: myeloma patients; conditions: Table 9; immobilized peptide, 5.0 mg/ml resin load
Description: In addition, the following targets, all unfractionated IgGs, were also evaluated with selected immobilized peptides for species specificity characterization in a similar format: human IgG, goat IgG, bovine IgG, and mouse IgG (Sigma, product nos. I4506, I5256, I5506, and I15381, respectively). In addition, 10 μl aliquots of hydrolyzed NHS-activated Sepharose 4 Fast Flow (Amersham Pharmacia Biotech, product no. 17-0906-01) and immobilized recombinant Protein A (RepliGen Corp., product no. IPA-400) were also assayed as negative and positive controls. IgG targets were diluted into 10 mM phosphate buffer containing 150 mM NaCl and 0.01% Tween 20, pH 7.2 (PBST) or 50 mM Tris buffer containing, 150 mM NaCl and 0.01% Tween-20, pH 7.5 (TBST). Batch (static) binding and elution studies were conducted in a 96-well assay filterplate (Millipore MultiScreen-HV, with 0.45 μm Durapore membrane, product no. MAHVN4510). The target was allowed to incubate with the resin for 1-1.5 hours with shaking at room temperature. Unbound target was collected by centrifugation of samples from the assay plate directly into a low-UV absorbing 96-well collection plate (Costar, product no. 3635 or Greiner, product no. 655801). The unbound target was then quantitated by reading the absorbance at 280 nm (normalized to 1 cm pathlength, 1.4 mg/ml A280 extinction coefficient) of the collection plate on a microplate spectrophotometer (Molecular Devices Corp., SPECTRAmax PLUS) against a buffer blank.
The percentage bound target was determined by subtracting the mass determined as unbound from the corresponding condition's control values (control non-filtered added directly to the collection plate and/or the negative control). The assay plate was washed (3×) with 200 μl of binding buffer by vacuum filtration followed by addition of 100 μl of various elution conditions (e.g.: 0.1 M sodium bicarbonate buffer, pH 8.5 and/or 0.1 M sodium citrate buffer, pH 4.0). After a 30-60 minute incubation with shaking at room temperature, the eluted target was collected by centrifugation of the assay plate into another collection plate and quantitated in a similar manner. Percent elution of total load was then determined to characterize elution recovery efficiency under various conditions. The assay plate was then washed (3×) with 200 μl of binding buffer by vacuum filtration followed by addition of a resin cleaning condition (e.g., 0.1M CAPS buffer (3-[Cyclohexylamino]-1-propane-sulfonic acid), pH 11.5, to regenerate the resin for re-use. Percentage mass balance determination was calculated to be 90-100% on average.

T5 sequence (P01859 1-326 isoform P01859-1): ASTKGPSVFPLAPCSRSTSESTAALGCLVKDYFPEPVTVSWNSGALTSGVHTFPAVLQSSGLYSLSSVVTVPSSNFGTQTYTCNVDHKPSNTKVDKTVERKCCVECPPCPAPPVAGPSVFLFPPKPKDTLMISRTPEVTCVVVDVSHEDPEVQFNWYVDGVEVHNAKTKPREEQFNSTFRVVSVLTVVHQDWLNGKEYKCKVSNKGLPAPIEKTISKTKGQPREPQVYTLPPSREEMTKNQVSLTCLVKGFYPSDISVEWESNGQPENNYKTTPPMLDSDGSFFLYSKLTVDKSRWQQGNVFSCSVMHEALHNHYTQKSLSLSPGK
T1 sequence (P01860 1-377 isoform P01860-1): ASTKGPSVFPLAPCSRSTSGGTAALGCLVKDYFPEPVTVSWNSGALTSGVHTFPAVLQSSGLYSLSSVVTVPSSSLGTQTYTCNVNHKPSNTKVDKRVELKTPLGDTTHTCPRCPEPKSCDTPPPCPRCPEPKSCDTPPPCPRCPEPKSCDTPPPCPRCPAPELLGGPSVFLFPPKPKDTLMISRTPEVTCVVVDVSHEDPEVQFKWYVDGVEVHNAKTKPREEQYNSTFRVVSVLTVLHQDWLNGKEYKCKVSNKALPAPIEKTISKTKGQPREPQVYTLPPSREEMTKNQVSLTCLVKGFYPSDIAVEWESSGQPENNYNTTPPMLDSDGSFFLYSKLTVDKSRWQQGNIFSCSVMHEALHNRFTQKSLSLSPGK
T6 sequence (P01861 1-327 isoform P01861-1): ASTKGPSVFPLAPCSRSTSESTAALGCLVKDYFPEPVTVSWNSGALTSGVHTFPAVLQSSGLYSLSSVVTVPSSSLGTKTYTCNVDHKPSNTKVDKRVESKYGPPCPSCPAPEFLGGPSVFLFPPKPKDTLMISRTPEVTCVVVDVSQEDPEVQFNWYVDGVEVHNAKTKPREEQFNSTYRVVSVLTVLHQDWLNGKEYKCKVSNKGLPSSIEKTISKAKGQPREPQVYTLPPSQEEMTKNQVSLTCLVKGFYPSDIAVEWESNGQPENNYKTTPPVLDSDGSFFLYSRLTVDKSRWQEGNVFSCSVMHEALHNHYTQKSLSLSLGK
T4 sequence (P01857 1-330 isoform P01857-1): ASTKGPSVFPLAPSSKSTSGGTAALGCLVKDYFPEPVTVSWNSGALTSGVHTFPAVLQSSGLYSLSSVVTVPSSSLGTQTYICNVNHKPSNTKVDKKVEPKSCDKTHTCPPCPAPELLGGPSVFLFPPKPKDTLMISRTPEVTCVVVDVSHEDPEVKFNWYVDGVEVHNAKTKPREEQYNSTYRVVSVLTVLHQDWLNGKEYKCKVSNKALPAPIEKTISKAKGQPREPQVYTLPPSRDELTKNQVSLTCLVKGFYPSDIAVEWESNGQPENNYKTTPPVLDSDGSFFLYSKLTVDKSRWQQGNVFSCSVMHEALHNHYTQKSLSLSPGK
T2 sequence (P01859 1-326 isoform P01859-1): as the sequence (P01859 1-326 isoform P01859-1) above
Chain of IgG3 (P01860 1-377 isoform P01860-1): as the sequence (P01860 1-377 isoform P01860-1) above
Chain of IgG4 (P01861 1-327 isoform P01861-1): as the sequence (P01861 1-327 isoform P01861-1) above
T3 sequence (P01857 1-330 isoform P01857-1): as the sequence (P01857 1-330 isoform P01857-1) above

Kd [1]: 6.8 ± 4.3 µM
KD (μM) IgG3 (human plasma IgG3 [2]): No binding
SMILES: CC(=O)NCC(=O)N[C@@H](CC(=O)O)C(=O)N[C@@H](CCCNC(=N)N)C(=O)N[C@@H](CCCNC(=N)N)C(=O)N[C@@H](C)C(=O)N[C@H]1CSSC[C@@H](C(=O)N[C@@H](C)C(=O)NCC(=O)N[C@@H](Cc2c[nH]cn2)C(=O)N[C@@H](CCC(=O)O)C(=O)N2CCC[C@H]2C(=O)NCC(=O)N2CCC[C@H]2C(=O)N[C@@H](CCC(=O)O)C(=O)NCC(=O)NCC(=O)NCC(=O)N[C@@H](CCCCNC(=O)c2ccc3c(c2)C(=O)OC32c3ccc(O)cc3Oc3cc(O)ccc32)C(N)=O)NC(=O)[C@H](Cc2c[nH]c3ccccc23)NC(=O)[C@H](C(C)C)NC(=O)[C@H](CC(C)C)NC(=O)[C@H](C)NC(=O)CNC(=O)[C@H](CO)NC(=O)[C@H](Cc2c[nH]c3ccccc23)NC(=O)[C@H](CC(=O)O)NC(=O)[C@H](CCCNC(=N)N)NC(=O)[C@H](CO)NC1=O [DX301] (Ac-GDRRACSRDWSGALVWCAGHEPGPEGGGK(5FAM)-NH2; disulfide 6-17)

SMILES: CC(=O)N[C@@H](C)C(=O)NCC(=O)N[C@H](C(=O)N[C@@H](Cc1ccc(O)cc1)C(=O)N[C@@H](Cc1c[nH]c2ccccc12)C(=O)N[C@H]1CSSC[C@@H](C(=O)N[C@@H](CC(=O)O)C(=O)N2CCC[C@H]2C(=O)N[C@@H](C)C(=O)N2CCC[C@H]2C(=O)NCC(=O)N2CCC[C@H]2C(=O)N[C@@H](CCC(=O)O)C(=O)NCC(=O)NCC(=O)NCC(=O)N[C@@H](CCCCN)C(N)=O)NC(=O)[C@@H]2CCCN2C(=O)[C@H](CC(C)C)NC(=O)[C@H](CCC(=O)O)NC(=O)[C@H](Cc2c[nH]c3ccccc23)NC(=O)[C@H](Cc2ccccc2)NC(=O)[C@H]([C@@H](C)O)NC1=O)[C@@H](C)O [DX404]
% IgG Capture - Batch Binding, Human IgG4 (IgG4): 10%
% IgG Capture - Batch Binding, Human IgG2 (human IgG2): 11%
% IgG Capture - Batch Binding, Human IgG (human IgG): 30%
% IgG Capture - Batch Binding, Human IgG1 (human IgG1): 38%
% IgG Capture - Batch Binding, Bovine IgG (bovine IgG): 0%
% IgG Capture - Batch Binding, Goat IgG (goat IgG): 0%
% IgG Capture - Batch Binding, Mouse IgG (mouse IgG): 2%
Kd (human plasma IgG1; 10 nM Tris-HCl, 500 mM Sodium Chloride, pH 7.5, read-out: KD (μM) IgG1 pH 7.5 + salt): > 10 µM
Kd (human plasma IgG1; 10 mM Sodium Bicarbonate, 500 mM Sodium Chloride, pH 9.5, read-out: KD (μM) IgG1 pH 9.5 + salt): > 10 µM
Kd (human plasma IgG1; 10 mM Sodium Bicarbonate, pH 9.5, read-out: KD (μM) IgG1 pH 9.5 − salt): > 10 µM
Kd (human plasma IgG1; 10 mM Sodium Citrate, 500 mM Sodium Chloride, pH 4.0, read-out: KD (μM) IgG1 pH 4.0 + salt): ~2 µM and 2 µM
Kd (human plasma IgG1; 10 mM Sodium Citrate, pH 4.0, read-out: KD (μM) IgG1 pH 4.0 − salt): ~2 µM
Kd (human plasma IgG2; 10 nM Tris-HCl, 500 mM Sodium Chloride, pH 7.5, read-out: KD (μM) IgG2 pH 7.5 + salt): > 10 µM
Kd (human plasma IgG2; 10 mM Sodium Bicarbonate, 500 mM Sodium Chloride, pH 9.5, read-out: KD (μM) IgG2 pH 9.5 + salt): > 10 µM
Kd (human plasma IgG2; 10 mM Sodium Bicarbonate, pH 9.5, read-out: KD (μM) IgG2 pH 9.5 − salt): > 10 µM
Kd (human plasma IgG2; 10 mM Sodium Citrate, 500 mM Sodium Chloride, pH 4.0, read-out: KD (μM) IgG2 pH 4.0 + salt): ~2 µM and 2 µM
Kd (human plasma IgG2; 10 mM Sodium Citrate, pH 4.0, read-out: KD (μM) IgG2 pH 4.0 − salt): ~2 µM
Kd (human plasma IgG4; 10 nM Tris-HCl, 500 mM Sodium Chloride, pH 7.5, read-out: KD (μM) IgG4 pH 7.5 + salt): > 10 µM
Kd (human plasma IgG4; 10 mM Sodium Bicarbonate, 500 mM Sodium Chloride, pH 9.5, read-out: KD (μM) IgG4 pH 9.5 + salt): > 10 µM
Kd (human plasma IgG4; 10 mM Sodium Bicarbonate, pH 9.5, read-out: KD (μM) IgG4 pH 9.5 − salt): > 10 µM
Kd (human plasma IgG4; 10 mM Sodium Citrate, 500 mM Sodium Chloride, pH 4.0, read-out: KD (μM) IgG4 pH 4.0 + salt): > 10 µM
Kd (human plasma IgG4; 10 mM Sodium Citrate, pH 4.0, read-out: KD (μM) IgG4 pH 4.0 − salt): > 10 µM
Kd (human plasma IgG4; 10 mM Tris-HCl, pH 7.5, read-out: KD (μM) IgG4 pH 7.5 − salt): > 10 µM
Kd (human plasma IgG3 [3]; 10 mM Sodium Bicarbonate, 500 mM Sodium Chloride, pH 9.5, read-out: KD (μM) IgG3 pH 9.5 + salt): > 10 µM
Kd (human plasma IgG3 [3]; 10 mM Sodium Bicarbonate, pH 9.5, read-out: KD (μM) IgG3 pH 9.5 − salt): > 10 µM
Kd (human plasma IgG3 [3]; 10 mM Sodium Citrate, 500 mM Sodium Chloride, pH 4.0, read-out: KD (μM) IgG3 pH 4.0 + salt): 0.2 µM
Kd (human plasma IgG3 [3]; 10 mM Sodium Citrate, pH 4.0, read-out: KD (μM) IgG3 pH 4.0 − salt): ~0.01 µM and 0.01 µM
% IgG Capture - Batch Binding, Human IgG3 (IgG3): 74%
